Source: patent US4175081A, “5-Substituted thiadiazole ureas” (priority 1977, dated 1979)

Experiments:
Bean (BN) = experiment: Post-emergence herbicide test; format: in vivo, Phaseolus vulgaris var. Black Valentine; details: two weeks after treatment; for pest or weed control at 4483.4 g/ha: 4 lb/acre
Method: Bean (BN)--Phaseolus vulgaris var. Black Valentine
(§1) All crop and weed species were planted individually in 3' plastic pots containing potting soil. Four seeds each of corn, cotton, and snapbeans were seeded to a depth equal to the diameter of the seed. All other species were surface seeded and sprinkled with screened soil in an amount sufficient to cover the seed. Immediately after planting, all pots were watered by sub-irrigation in greenhouse trays. Pots for the pre-emergence phase were seeded one day before treatment.
(§2) Planting dates for the post-emergence phase were varied so that all seedlings would reach the desired stage of development simultaneously. The proper stage of seedling development for treatment in the post-emergence phase is as follows:
Beans: primary leaves expanded, growing point at primary leaf nodes.
(§3) Spray hood constants required to deliver the above volume are as follows:
(§4) Formulations for spray applications were prepared in 50 ml volumes with the following three components:
(§5) Formulations for the 4 lbs/acre rate were prepared by adjusting the amount of active ingredient accordingly.
(§6) Spray applications were made in a hood containing a removable belt and fixed spray nozzle. For passage through the spray hood, one pot of each specie (pre-emergence phase) was placed on the rear half of the flat. Treatments were removed to the greenhouse after spraying. Watering during the observation period was done only by sub-irrigation.
(§7) Two weeks after treatment, pre- and post-emergence injury or control was visually rated, and the results were as shown in the following tables. Pre-emergence data are provided in TABLE III and post-emergence data are provided in TABLE IV, for compounds having the formula illustrated in TABLE I. Correspondingly, pre-emergence and post-emergence data, respectively, are set forth in TABLES V AND VI, for compounds having the formula illustrated in TABLE II.

Crabgrass (CG) [1] = experiment: Post-emergence herbicide test; format: in vivo, Digitaria sanquinalis; details: two weeks after treatment; for pest or weed control at 4483.4 g/ha: 4 lb/acre
Method: (§8) Crabgrass (CG)--Digitaria sanquinalis
as §1, §2, §3
(§9) Formulations for spray applications were prepared in 50 ml volumes with the following three components: […]
as §6, §7

Barnyard grass (BG) [2] = experiment: Post-emergence herbicide test; format: in vivo; details: Echinochloa crus-galli, 336 h, 4 lb/acre, two weeks after treatment
Method: (§10) Barnyard grass (BG)--Echinochloa crus-galli
as §1, §2
(§11) Compounds were tested at rates of application equivalent to 8 lbs. of actual compound per acre in a spray volume of 38 gallons per acre. Spray hood constants required to deliver the above volume are as follows:
as §4, §5, §6, §7

Cotton (CT) = experiment: Post-emergence herbicide test; format: in vivo, Gossypium hirsutum var. DPL smooth leaf; details: two weeks after treatment; for pest or weed control at 4483.4 g/ha: 4 lb/acre
Method: Cotton (CT)--Gossypium hirsutum var. DPL smooth leaf
as §1, §2
Cotton: first true leaf 1' in length; expanded cotyledons.
as §3, §4, §5, §6, §7

Johnson grass (JG) [3] = experiment: Post-emergence herbicide test; format: in vivo, Sorgum helepense; details: Sorghum halepense, 336 h, 4 lb/acre, two weeks after treatment
Method: (§12) Johnson grass (JG)--Sorgum helepense
as §1, §2, §11, §4, §5, §6, §7

Turnip (TP) [4] = experiment: Post-emergence herbicide test; format: in vivo, Brassica sp.; details: two weeks after treatment; for pest or weed control at 4483.4 g/ha: 4 lb/acre
Method: (§13) Turnip (TP)--Brassica sp.
as §1, §2
Pigweed and turnips: 1 or 2 true leaves above visible cotyledons.
as §3, §9, §6, §7

Corn (CN) = experiment: Post-emergence herbicide test; format: in vivo; details: Zea mays, 336 h, 4 lb/acre, two weeks after treatment
Method: as §1, §2, §11, §4, §5, §6, §7

Crabgrass (CG) [5] = experiment: Pre-emergence herbicide test; format: in vivo, Digitaria sanquinalis; details: two weeks after treatment; for pest or weed control at 4483.4 g/ha: 4 lb/acre
Method: as §8, §1, §3, §9, §6, §7

Turnip (TP) [6] = experiment: Pre-emergence herbicide test; format: in vivo, Brassica sp.; details: two weeks after treatment; for pest or weed control at 4483.4 g/ha: 4 lb/acre
Method: as §13, §1, §3, §9, §6, §7

Johnson grass (JG) [7] = experiment: Pre-emergence herbicide test; format: in vivo, Sorgum helepense; details: Sorghum halepense, 336 h, two weeks after treatment
Method: as §12, §1, §11, §4, §5, §6, §7

Barnyard grass (BG) [8] = experiment: Pre-emergence herbicide test; format: in vivo; details: Echinochloa crus-galli, 336 h, 4 lb/acre, two weeks after treatment
Method: as §10, §1, §11, §4, §5, §6, §7

[9] = Phaseolus vulgaris, post-emergence, 336 h
[10] = Digitaria sanguinalis, post-emergence, 336 h
[11] = Gossypium hirsutum, post-emergence, 336 h
[12] = Brassica rapa, post-emergence, 336 h
[13] = Digitaria sanguinalis, pre-emergence, 336 h
[14] = Brassica rapa, pre-emergence, 336 h

Compound | pest or weed control at 4483.4 g/ha (Bean (BN); [9]) | pest or weed control at 4483.4 g/ha (Crabgrass (CG) [1]; [10]) | pest or weed control at 4483.4 g/ha (Barnyard grass (BG) [2]) | pest or weed control at 4483.4 g/ha (Cotton (CT); [11]) | pest or weed control at 4483.4 g/ha (Johnson grass (JG) [3]) | pest or weed control at 4483.4 g/ha (Turnip (TP) [4]; [12]) | pest or weed control at 4483.4 g/ha (Corn (CN)) | also measured
CCCCCCSc1nnc(NC(=O)NC)s1 [Example 60] | 100% | 80% | 40% | 70% | 70% | 100% | 60% | pest or weed control at 2241.7 g/ha (Turnip (TP) [4]; Brassica rapa, post-emergence, 336 h, 2 lb/acre): 100%
CCCCCS(=O)(=O)c1nnc(NC(=O)NC)s1 [Example 64] | 90% | 90% | 60% | 70% | 50% | 90% | 30% | –
CCCCS(=O)(=O)c1nnc(NC(=O)NC)s1 [Example 65] | 100% | 90% | 90% | 70% | 60% | 100% | 30% | –
NC(=O)Nc1nnc(C(F)(F)F)s1 [Example 70] | – | – | – | – | – | – | – | Pre-emergence activity, % control, CG (Crabgrass (CG) [5]; 5 lb/acre): 10%; Pre-emergence activity, % control, CG (Crabgrass (CG) [5]; 10 lb/acre): 10%; Pre-emergence activity, % control, TP (Turnip (TP) [6]; 5 lb/acre): 10%; Pre-emergence activity, % control, TP (Turnip (TP) [6]; 10 lb/acre): 10%; Post-emergence activity, % control, BN (Bean (BN); 5 lb/acre): 50%; Post-emergence activity, % control, BN (Bean (BN); 10 lb/acre): 50%; Post-emergence activity, % control, CG (Crabgrass (CG) [1]; 5 lb/acre): 20%; Post-emergence activity, % control, CG (Crabgrass (CG) [1]; 10 lb/acre): 20%; Post-emergence activity, % control, CT (Cotton (CT); 5 lb/acre): 20%; Post-emergence activity, % control, CT (Cotton (CT); 10 lb/acre): 20%; Post-emergence activity, % control, TP (Turnip (TP) [4]; 5 lb/acre): 80%; Post-emergence activity, % control, TP (Turnip (TP) [4]; 10 lb/acre): 80%
CNC(=O)Nc1nnc(C(C)C)s1 [Example 82] | 60% | 50% | – | 80% | – | 80% | – | pest or weed control at 4483.4 g/ha (Crabgrass (CG) [5]; [13]): 30%; pest or weed control at 4483.4 g/ha (Turnip (TP) [6]; [14]): 20%; pest or weed control at 4483.4 g/ha (Johnson grass (JG) [7]; 4 lb/acre): 0%
Cc1nnc(NC(N)=O)s1 [Example 84, reference compound] | – | – | – | – | – | – | – | pest or weed control at 11208.5 g/ha (Crabgrass (CG) [5]; Digitaria sanguinalis, pre-emergence, 336 h, 10 lb/acre): 0%; pest or weed control at 11208.5 g/ha (Turnip (TP) [6]; Brassica rapa, pre-emergence, 336 h, 10 lb/acre): 0%; pest or weed control at 11208.5 g/ha (Bean (BN); Phaseolus vulgaris, post-emergence, 336 h, 10 lb/acre): 50%; pest or weed control at 11208.5 g/ha (Crabgrass (CG) [1]; Digitaria sanguinalis, post-emergence, 336 h, 10 lb/acre): 20%; pest or weed control at 11208.5 g/ha (Johnson grass (JG) [7]; 10 lb/acre): 50%; pest or weed control at 11208.5 g/ha (Cotton (CT); Gossypium hirsutum, post-emergence, 336 h, 10 lb/acre): 20%; pest or weed control at 11208.5 g/ha (Turnip (TP) [4]; Brassica rapa, post-emergence, 336 h, 10 lb/acre): 80%
CNC(=O)Nc1nnc(C2CC2)s1 [Example 85] | 50% | 30% | – | 80% | – | 60% | – | pest or weed control at 4483.4 g/ha (Crabgrass (CG) [5]; [13]): 0%; pest or weed control at 4483.4 g/ha (Turnip (TP) [6]; [14]): 0%; pest or weed control at 4483.4 g/ha (Barnyard grass (BG) [8]): 0%
